Measurements as given in patent US6025365A, “Chelerythrine and radiation combined tumor therapy” (Arch Development Corp., priority 1997, dated 2000).

Columns and labels:
SQ20-B cells = test: Clonogenic survival / colony formation assay; assay type: cell-based, human
Experimental: FIG. 2. Chelerythrine chloride enhanced IR-mediated cell killing through divisional death. Clonogenic survival was measured following exposure to increasing concentrations of chelerythrine and ionizing radiation. Cells were plated at cell numbers between about 500 cells/plate and about 2000 cells/plate and treated with 0 μM, 0.5 μM, or 1.0 μM chelerythrine chloride for 30 minutes prior to irradiation. After 2 weeks the colonies were scored for survival if they were composed of more than 50 cells. Results represent the mean of three individual experiments with duplicate or triplicate determinants. Error bars represent +/- the standard error of the means (SEM).
FIG. 5C. […] Closed circles represent radiation alone; closed squares represenet addition of 20 μM C2-Ceramide 30 minutes prior to x-ray.
Exponentially growing SQ20B cultures were trypsinized using 0.05% trypsin+0.02% EDTA. Cells (100 to 50,000) were plated in 100 mm tissue culture dishes. Chelerythrine or C2-ceramide was added 4 hours after plating and irradiated for 30 minutes after the addition of chelerythrine or C2-ceramide. The cells were irradiated using a GE Maxitron 250 x-ray generator operating at 250 kV and 26 mA with a dose rate of 114 cGy/min. After 12 days the cells were fixed and stained with crystal violet following standard procedures (Chmura et al., 1996a; 1996b). Colonies of >50 cells were scored as survivors.
Clonogenic survival was measured following increasing concentrations of chelerythrine chloride alone (0.5-1.5 μM), IR alone (1-9 Gy), or the combined treatment of cells with chelerythrine and IR. […] At a concentration of 500 nM, chelerythrine decreased cell survival to about 80% of untreated control cells (about 20% cell death). The combined treatment of cells with 500 nM of chelerythrine 30 minutes prior to treatment with 3 Gy of radiation decreased cell survival to about 30% of untreated cells (about 70% cell death). […] Cell shrinkage and nuclear condensation, characteristic of apoptosis, were not observed at these concentrations of chelerythrine and IR.

neutral sphingomyelinase = test: Mixed micellar assay, neutral sphingomyelinase activity in treated WEHI-231 cells; assay type: cell-based, murine; details: chelerythrine, within 30 minutes; SD
Experimental: FIG. 7C. Graph of neutral and acidic sphingomyelinase activity normalized to percent of control. Cells (2×10^7) were treated with chelerythrine for 30 minutes prior to being assayed for neutral or acidic sphingomyelinase activity. Error bars represent +/- SEM from 4 individual studies with duplicate determinants.
The mixed micellar sphingomyelinase assay using ^[14] C labeled sphingomyelin was performed as described (Wiegmann et al., 1994) with minor modifications as described herein. Exponentially growing cells 2×10^7 were treated, collected, and lysed in 200 μl of neutral buffer (20 mM Hepes, pH 7.4; 10 mM MgCl2, 2 mM EDTA, 5 mM DTT, […], 10 mM b-glycerolphosphate, 750 μM ATP, 1 mM PMSF, Leupeptin, Pepstatin, 2% Triton X-100) or an acid buffer (pH=5.5, 2% Triton X-100, 1 mM PMSF, Leupeptin, Pepstatin). After incubation for 5 minutes at 4° C., cells were homogenized by sonication and cell debris were removed by low speed centrifugation (800×g). The protein concentration was measured using the BioRad protein assay system (BioRad). Protein (50 μg) was incubated for 2 hours at 37° C. in a buffer (1 ml final volume) containing 20 mM HEPES, 1 mM MgCl2, and 0.9 μl [N-methyl-^14 C sphingomyelin]. […] Radioactive phosphorylcholine was measured by scintillation counting. Data is expressed as a percent of control for both the acidic and neutral sphingomyelinases. […]

acidic sphingomyelinase = test: Mixed micellar assay, acidic sphingomyelinase activity in treated SQ-20B cells; assay type: cell-based, human; details: 5 μM chelerythrine 30 minutes then 10 Gy; within 5 minutes of IR
Experimental: FIG. 5A. […] The mixed micellar assay for sphingomyelinase activity was used to quantitate increased enzymatic activity.
The mixed micellar sphingomyelinase assay using ^[14] C labeled sphingomyelin was performed as described (Wiegmann et al., 1994) with minor modifications as described herein. Exponentially growing cells 2×10^7 were treated, collected, and lysed in 200 μl of neutral buffer (20 mM Hepes, pH 7.4; 10 mM MgCl2, 2 mM EDTA, 5 mM DTT, […], 10 mM b-glycerolphosphate, 750 μM ATP, 1 mM PMSF, Leupeptin, Pepstatin, 2% Triton X-100) or an acid buffer (pH=5.5, 2% Triton X-100, 1 mM PMSF, Leupeptin, Pepstatin). After incubation for 5 minutes at 4° C., cells were homogenized by sonication and cell debris were removed by low speed centrifugation (800×g). The protein concentration was measured using the BioRad protein assay system (BioRad). Protein (50 μg) was incubated for 2 hours at 37° C. in a buffer (1 ml final volume) containing 20 mM HEPES, 1 mM MgCl2, and 0.9 μl [N-methyl-^14 C sphingomyelin].

[1] = 500 nM chelerythrine 30 minutes prior to 3 Gy

COc1ccc2c(c[n+](C)c3c4cc5c(cc4ccc23)OCO5)c1OC [chelerythrine, 1,2-dimethoxy-12-methyl[1,3]benzodioxolo[5,6-c]phenanthridinium] was tested, and the “cell death, combined treatment” value (SQ20-B cells; [1]) was “about 70%”, the “cell survival, combined treatment” value (SQ20-B cells; [1]) was “about 30 % of untreated cells” and the cytotoxicity at 0.5 µM (SQ20-B cells; Homo sapiens, SQ20B, read-out: cell death) was ~20%. For the same molecule, the viability at 0.5 µM (SQ20-B cells; Homo sapiens, SQ20B, 500 nM chelerythrine alone) was ~80%, the neutral sphingomyelinase activity (neutral sphingomyelinase) was 235% (+/-38 SD) and the “acidic sphingomyelinase activity, x-rays and chelerythrine” value (acidic sphingomyelinase) was “about 170 % of control”.
